Experimental data taken from patent US9643964B2, “3-(2-aminopyrimidin-4-yl)-5-(3-hydroxypropynyl)-1H-pyrrolo[2,3-C]pyridine derivatives as NIK inhibitors for the treatment of cancer” (Janssen Pharmaceutica NV, priority 2013, dated 2017).

Tests used:
L-363 cells = assay: Biological Assay C: antiproliferative activity on L-363 cells (CellTiter-Glo); type: cell-based, human; conditions: Homo sapiens, L-363, 72 h, 72 hr treatment; averaged values
Method in brief: (§1)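 CellTiter-Glo luminescence after 72 h exposure, blank (cells read at compound addition) subtracted, growth expressed as % of untreated control; duplicate wells. Suspension cells in RPMI/10% FCS, 2,000–6,000 cells/well, 0.3% DMSO.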

[1] = target: T1, Recombinant Human NF-kappaB-Inducing Kinase (NIK/MAP3K14) (Homo sapiens, UniProt Q99558); assay: Biological Assay A: inhibition of recombinant human NIK/MAP3K14 activity (MBP phosphorylation, Mesoscale); type: biochemical; conditions: averaged over all measurements on all batches; read-out: Biochemical (MSD MBP) IC50
Description: Inhibition of Recombinant Human NF-kappaB-Inducing Kinase (NIK/MAP3K14) Activity
Assay buffer was 50 mM Tris pH 7.5 containing 1 mM EGTA (ethylene glycol tetraacetic acid), 1 mM DTT (dithiothreitol), 0.1 mM Na3VO4, 5 mM MgCl2, 0.01% Tween 20. Assays were carried out in 384 well Mesoscale high binding plates which had been coated with myelin basic protein (MBP) and blocked with bovine serum albumin to prevent non-specific protein binding. All compounds tested were dissolved in dimethyl sulfoxide (DMSO) and further dilutions were made in assay buffer. Final DMSO concentration was 1% (v/v) in assays. Incubations consisted of compound (1% DMSO in control and blank wells), 25 μM Adenosine-5′-triphosphate (ATP), and 10 nM NIK/MAP3K14 substituting enzyme with buffer in the blank wells. Incubations were carried out for 1 h at 25° C. and were followed by washing and sequential incubation with rabbit anti-phospho-MBP and anti-rabbit Ig Sulfotag antibody before reading bound Sulfotag on a Mesoscale Discovery. Signal obtained in the wells containing blank samples was subtracted from all other wells and IC50's were determined by fitting a sigmoidal curve to % inhibition of control versus Log10 compound concentration.

[2] = target: T1, Recombinant Human NF-kappaB-Inducing Kinase (NIK/MAP3K14); assay: Biological Assay A2: inhibition of auto-phosphorylation of recombinant human NIK/MAP3K14 (AlphaScreen); type: biochemical; conditions: auto-phosphorylation; averaged over all measurements on all batches; read-out: αscreen IC50
Method in brief: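 GST-tagged NIK/MAP3K14 (0.2 nM) auto-phosphorylation with 25 microM ATP in 50 mM Tris pH 7.5, 5 mM MgCl2, 1% DMSO; 1 h at 25° C. Phospho-IKK Ser176/180 detected by AlphaScreen; blank-subtracted % inhibition fitted sigmoidally vs log concentration for IC50.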

[3] = test system: P-IKKα levels in L363 cells; assay: Biological Assay B: effect of compounds on P-IKKα levels in L363 cells; type: cell-based; conditions: Homo sapiens, L-363, averaged values, read-out: IKKα Cellular IC50
Description: Effect of Compounds on P-IKKα Levels in L363 Cells
All compounds tested were dissolved in DMSO and further dilutions were made in culture medium. Final DMSO concentration was 1% (v/v) in cell assays. The human L363 cells (ATCC) were cultured in RPMI 1640 medium supplemented with GlutaMax and 10% fetal calf serum (PAA). Cells were routinely maintained at densities of 0.2×10^6 cells per ml-1×10^6 cells per ml at 37° C. in a humidified 5% CO2 atmosphere. Cells were passaged twice a week splitting back to obtain the low density. Cells were seeded in 96 well plates (Nunc 167008) at 2×10^6 per ml media in a volume of 75 μl per well plus 25 μl 1 μg/ml recombinant human B-cell activating factor BAFF/B1YS/TNFSF13B. Seeded cells were incubated at 37° C. in a humidified 5% CO2 atmosphere for 24 hr. Drugs and/or solvents were added (20 μl) to a final volume of 120 μl. Following 2 hr treatment plates were removed from the incubator and cell lysis was achieved by the addition of 30 μl 5× lysis buffer followed by shaking on a plate shaker at 4° C. for 10 min. At the end of this incubation lysed cells were centrifuged at 800×g for 20 min at 4° C. and the lysate was assessed for P-IKKα levels by sandwich immuno-assay carried out in anti-rabbit antibody coated Mesoscale plates. Within an experiment, the results for each treatment were the mean of 2 replicate wells. For initial screening purposes, compounds were tested using an 8 point dilution curve (serial 1:3 dilutions). For each experiment, controls (containing MG132 and BAFF but no test drug) and a blank incubation (containing MG132 and BAFF and 10 μM ADS125117, a test concentration known to give full inhibition) were run in parallel. The blank incubation value was subtracted from all control and sample values. To determine the IC50 a sigmoidal curve was fitted to the plot of % inhibition of control P-IKKα levels versus Log10 compound concentration.

JJN-3 cells = assay: Biological Assay C: antiproliferative activity on JJN-3 cells (CellTiter-Glo); type: cell-based, human; conditions: Homo sapiens, JJN-3, 72 h, 72 hr treatment; averaged values
Method in brief: as §1

LP-1 cells = assay: Biological Assay C: antiproliferative activity on LP-1 cells (CellTiter-Glo); type: cell-based, human; conditions: Homo sapiens, LP-1, 72 h, 72 hr treatment; averaged values
Method in brief: as §1

T1 sequence (Q99558 whole entry): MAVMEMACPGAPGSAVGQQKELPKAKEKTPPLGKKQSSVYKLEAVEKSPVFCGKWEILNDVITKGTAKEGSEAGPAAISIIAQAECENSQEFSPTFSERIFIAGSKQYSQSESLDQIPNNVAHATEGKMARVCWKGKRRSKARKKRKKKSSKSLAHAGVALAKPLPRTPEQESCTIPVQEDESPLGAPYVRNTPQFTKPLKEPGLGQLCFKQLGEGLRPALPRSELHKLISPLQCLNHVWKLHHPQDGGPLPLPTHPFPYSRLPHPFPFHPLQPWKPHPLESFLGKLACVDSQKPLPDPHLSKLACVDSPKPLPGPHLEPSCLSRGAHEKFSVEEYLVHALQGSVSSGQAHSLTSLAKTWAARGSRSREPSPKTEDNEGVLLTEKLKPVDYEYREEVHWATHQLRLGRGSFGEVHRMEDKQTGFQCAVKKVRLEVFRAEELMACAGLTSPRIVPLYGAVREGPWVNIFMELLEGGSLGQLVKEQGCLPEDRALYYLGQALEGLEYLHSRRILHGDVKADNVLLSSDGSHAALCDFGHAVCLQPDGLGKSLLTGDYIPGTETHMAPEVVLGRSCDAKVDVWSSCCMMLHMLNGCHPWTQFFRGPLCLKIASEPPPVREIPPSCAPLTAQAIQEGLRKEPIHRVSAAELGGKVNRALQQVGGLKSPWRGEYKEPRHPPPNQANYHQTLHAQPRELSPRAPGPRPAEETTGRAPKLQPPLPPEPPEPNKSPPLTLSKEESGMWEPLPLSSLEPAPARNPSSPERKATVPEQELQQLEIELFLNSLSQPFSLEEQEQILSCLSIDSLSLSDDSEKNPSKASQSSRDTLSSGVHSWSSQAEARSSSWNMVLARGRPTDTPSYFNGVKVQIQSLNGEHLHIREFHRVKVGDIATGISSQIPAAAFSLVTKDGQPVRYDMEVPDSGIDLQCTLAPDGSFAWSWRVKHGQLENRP

Row | IC50 [1] [µM] | IC50 [2] [µM] | IC50 [3] [µM] | SMILES | EC50 (L-363 cells) [µM] | EC50 (JJN-3 cells) [µM] | EC50 (LP-1 cells) [µM]
1 | 0.029 | 0.033 | 0.099 | COCCNC(=O)c1[nH]c2cnc(C#CC(C)(C)O)cc2c1-c1ccnc(N)n1 [Compound 52] | 3.2 | 1.2 | 30
2 | 0.045 | 0.057 | 0.37 | CC(C)(O)Cn1cc(-c2ccnc(N)n2)c2cc(C#CC(C)(O)CC3CC3)ncc21 (stereo not drawn) [Compound 53] | > 10 | 0.45 | > 10
3 | 0.027 | 0.017 | 0.021 | COCCn1cc(-c2nc(N)ncc2F)c2cc(C#CC(C)(C)O)ncc21 [Compound 54] | 0.059 | 0.089 | 0.33
4 | 0.084 | 0.18 | 0.14 | CC(C)(O)C#Cc1cc2c(-c3ccnc(N)n3)cn(CC3CCOCC3)c2cn1 [Compound 55] | 0.98 | 0.38 | 11
5 | 0.025 | 0.018 | 0.14 | CC(C)(O)C#Cc1cc2c(-c3ccnc(N)n3)cn(CC#N)c2cn1 [Compound 56] | 0.84 | 0.84 | 14
6 | 0.017 | 0.023 | 0.18 | CC(C)(O)C#Cc1cc2c(-c3ccnc(N)n3)cn(CCC#N)c2cn1 [Compound 57] | 0.91 | 1.3 | 31
7 | 0.43 | 0.7 | 0.11 | CNc1ncc(Cl)c(-c2cn(CC(C)(C)O)c3cnc(C#CC(C)(C)O)cc23)n1 [Compound 58] | 0.5 | 0.55 | 2
8 | 0.071 | 0.23 | 5 | CC(C)(O)Cn1cc(-c2ccnc(N)n2)c2cc(C#CC(C)(O)c3ccccn3)ncc21 (stereo not drawn) [Compound 59] | > 10 | 17 | > 10
9 | 0.0084 | 0.011 | 0.019 | CC(C)(O)C#Cc1cc2c(-c3nc(N)ncc3C#N)cn(CC(C)(C)O)c2cn1 [Compound 60] | 0.15 | 0.17 | 14
10 | 0.0038 | 0.005 | 0.023 | CC(C)(O)C#Cc1cc2c(-c3nc(N)ncc3C(F)(F)F)c[nH]c2cn1 [Compound 61] | 0.34 | 0.26 | 4.6
11 | 0.0052 | 0.029 | 0.02 | CC(C)(O)C#Cc1cc2c(-c3nc(N)ncc3F)cn(CC(C)(C)O)c2cn1 [Compound 64] | 0.051 | 0.081 | 2
12 | 0.015 | 0.054 | 0.14 | CC(C)(O)C#Cc1cc2c(-c3ccnc(N)n3)cn(C3COC3)c2cn1 [Compound 65] | 0.4 | 0.47 | 7
13 | 0.0058 | 0.052 | 0.24 | CC(C)(O)C#Cc1cc2c(-c3ccnc(N)n3)cn(C(C)(C)CO)c2cn1 [Compound 66] | 0.27 | 0.25 | 7.6
14 | 0.057 | 0.03 | 0.88 | CC(C)(O)C#Cc1cc2c(-c3ccnc(N)n3)cn(CCS(C)(=O)=O)c2cn1 [Compound 67] | 2.4 | 2.4 | > 10
15 | 0.13 | 0.047 | 0.36 | CNc1nccc(-c2cn(CC(C)(C)O)c3cnc(C#CC(C)(C)O)cc23)n1 [Compound 68] | 0.96 | 1.5 | 16

Further lines, the compound ahead of its results:

Row | SMILES | IC50 [1] [µM] | IC50 [2] [µM] | IC50 [3] [µM] | EC50 (L-363 cells) [µM] | EC50 (JJN-3 cells) [µM] | EC50 (LP-1 cells) [µM]
16 | CC(C)(O)Cn1cc(-c2ccnc(N)n2)c2cc(C#CC(C)(O)c3ccccc3)ncc21 (stereo not drawn) [Compound 36] | 0.017 | 0.086 | 0.9 | 7.9 | 1.7 | 12
17 | CC(C)(O)Cn1cc(-c2ccnc(N)n2)c2cc(C#CC(C)(O)C3CCC3)ncc21 (stereo not drawn) [Compound 37] | 0.045 | 0.1 | 0.33 | 16 | 3.6 | > 10
18 | CC(C)(O)Cn1cc(-c2ccnc(N)n2)c2cc(C#CC3(O)CCCCC3)ncc21 [Compound 38] | 0.021 | 0.056 | 0.37 | 15 | 1.9 | > 10
19 | CC(C)C(C)(O)C#Cc1cc2c(-c3ccnc(N)n3)cn(CC(C)(C)O)c2cn1 (stereo not drawn) [Compound 40] | 0.043 | 0.11 | 0.53 | 4.5 | 2.3 | 25
20 | COCCn1cc(-c2nc(N)ncc2C#N)c2cc(C#CC(C)(C)O)ncc21 [Compound 41] | 0.0035 | 0.009 | 0.043 | 0.29 | 0.24 | 2.2
21 | CC(C)(O)Cn1cc(-c2ccnc(N)n2)c2cc(C#CC3(O)CCC3)ncc21 [Compound 42] | 0.0057 | 0.024 | 0.084 | 1.5 | 0.33 | 16
22 | CCC(C)(O)C#Cc1cc2c(-c3ccnc(N)n3)cn(CC(C)(C)O)c2cn1 (stereo not drawn) [Compound 43] | 0.029 | 0.038 | 0.28 | 4.1 | 0.65 | > 10
23 | COCCCn1cc(-c2ccnc(N)n2)c2cc(C#CC(C)(C)O)ncc21 [Compound 44] | 0.025 | 0.021 | 0.036 | 0.4 | 0.25 | 1.7
24 | CC(C)(O)C#Cc1cc2c(-c3nc(N)ncc3F)c[nH]c2cn1 [Compound 45] | 0.0039 | 0.002 | 0.012 | 0.09 | 0.022 | 0.59
25 | Cc1c(-c2ccnc(N)n2)c2cc(C#CC(C)(C)O)ncc2n1CC(C)(C)O [Compound 46] | 0.06 | 0.055 | 0.18 | 3.6 | 1.1 | > 10
26 | CCNc1nccc(-c2c[nH]c3cnc(C#CC(C)(C)O)cc23)n1 [Compound 48] | 0.065 | 0.016 | 0.26 | 0.65 | 0.38 | 3.9
27 | CNC(=O)CCn1cc(-c2ccnc(N)n2)c2cc(C#CC(C)(C)O)ncc21 [Compound 49] | 0.15 | 0.36 | 5.9 | > 10 | 32 | > 10
28 | CN(C)C(=O)CCn1cc(-c2ccnc(N)n2)c2cc(C#CC(C)(C)O)ncc21 [Compound 50] | 0.14 | 0.23 | 0.65 | 7.5 | 2.7 | > 10
29 | CC(C)(O)C#Cc1cc2c(-c3ccnc(N)n3)cn(CCC(C)(C)O)c2cn1 [Compound 51] | 0.048 | 0.023 | 0.083 | 2.4 | 0.99 | > 10
